Reference: patent publication US6835401B2, “Method of treating diseases caused by over-production of free-radicals” (Pharmaton SA, priority 2000, dated 2004)

Tested on: glutathione peroxidase (GSH-PX)
Assay: Glutathione peroxidase (GSH-PX) activity in keratinocytes
Assay type: cell-based, human
Settings: 50 nM Se (sodium selenite 50 nM; selenium yeast 3.95 μg/ml), control cells
Method: Cultures were maintained at 37° C. in a humidified 5% CO2 atmosphere.

With `O=[Se](O)O` [sodium selenite] the GSH-PX activity was 91.44±10.37 mU/mg protein and the “induction of GSH-PX activity, fold increase vs controls” value (48 h) was 3.365 fold.
